Laboratory results from the supplement of paper PMC13380429.

Key:
Conditions in all cases: 72 h
Vero E6 [1] = test: relative viability EC50 (midpoint between 100% and the lowest measured viability); higher = less toxic
U2OS [2] = test: as above
HepG2 [3] = test: as above
Calu-3 [4] = test: as above
Caco-2 [5] = test: as above
Vero E6 [6] = test: drug sensitivity score (DSS) for viability; higher = more toxic; extreme values may be limits of the assay
U2OS [7] = test: as above
HepG2 [8] = test: as above
Calu-3 [9] = test: as above
Caco-2 [10] = test: as above
Vero E6 [11] = test: cell viability relative to DMSO; higher = less toxic
U2OS [12] = test: as above
HepG2 [13] = test: as above
Calu-3 [14] = test: as above
Caco-2 [15] = test: as above

SMILES | relative viability EC50 (Vero E6 [1]) | relative viability EC50 (U2OS [2]) | relative viability EC50 (HepG2 [3]) | relative viability EC50 (Calu-3 [4]) | relative viability EC50 (Caco-2 [5]) | drug sensitivity score (Vero E6 [6]) | drug sensitivity score (U2OS [7]) | drug sensitivity score (HepG2 [8]) | drug sensitivity score (Calu-3 [9]) | drug sensitivity score (Caco-2 [10]) | cell viability (Vero E6 [11]; 1 nM) | cell viability (Vero E6 [11]; 10 nM) | cell viability (Vero E6 [11]; 100 nM) | cell viability (Vero E6 [11]; 1000 nM) | cell viability (Vero E6 [11]; 10000 nM) | cell viability (U2OS [12]; 1 nM) | cell viability (U2OS [12]; 10 nM) | cell viability (U2OS [12]; 100 nM) | cell viability (U2OS [12]; 1000 nM) | cell viability (U2OS [12]; 10000 nM) | cell viability (HepG2 [13]; 1 nM) | cell viability (HepG2 [13]; 10 nM) | cell viability (HepG2 [13]; 100 nM) | cell viability (HepG2 [13]; 1000 nM) | cell viability (HepG2 [13]; 10000 nM) | cell viability (Calu-3 [14]; 1 nM) | cell viability (Calu-3 [14]; 10 nM) | cell viability (Calu-3 [14]; 100 nM) | cell viability (Calu-3 [14]; 1000 nM) | cell viability (Calu-3 [14]; 10000 nM) | cell viability (Caco-2 [15]; 1 nM) | cell viability (Caco-2 [15]; 10 nM) | cell viability (Caco-2 [15]; 100 nM) | cell viability (Caco-2 [15]; 1000 nM) | cell viability (Caco-2 [15]; 10000 nM)
C[C@H](NC(=O)Cc1cc(F)cc(F)c1)C(=O)N[C@@H]1C(=O)N(C)c2ccccc2-c2ccccc21 | > 10 µM | > 10 µM | > 10 µM | > 10 µM | > 10 µM | 0 | 0 | 0 | 0 | 0 | 100% | 98.7% | 97.1% | 102% | 109% | 94.8% | 96.8% | 90.9% | 91.5% | 93.1% | 112% | 95.7% | 102% | 98.2% | 98.6% | 106% | 89.5% | 90.6% | 97% | 94.9% | 89.5% | 88.6% | 93.1% | 94.3% | 96.7%
Cc1c(CC(C)(C)C(=O)O)n(Cc2ccc(Cl)cc2)c2ccc(F)cc12 | > 10 µM | > 10 µM | > 10 µM | > 10 µM | > 10 µM | 0 | 0 | 0 | 0 | 0 | 98.3% | 97.5% | 95.2% | 101% | 108% | 98.7% | 99.4% | 103% | 96.4% | 99.7% | 97.2% | 109% | 93.7% | 112% | 110% | 104% | 102% | 96.1% | 95.9% | 88% | 91.9% | 106% | 98.5% | 97.6% | 99%
Cc1cc(C(=O)Nc2cccc(C(=O)Nc3cccc(C(F)(F)F)c3)c2)on1 | > 10 µM | > 10 µM | > 10 µM | > 10 µM | > 10 µM | 0 | 0 | 1.5 | 0 | 0 | 100% | 99.4% | 96.7% | 97.3% | 103% | 99% | 99.3% | 94.8% | 104% | 104% | 103% | 92.3% | 109% | 92.9% | 79.1% | 93.7% | 99.8% | 99.7% | 102% | 99.8% | 96.2% | 96.6% | 89.5% | 101% | 105%
Cc1nnsc1C(=O)Nc1ccc(-n2nc(C(F)(F)F)cc2C(F)(F)F)cc1 | > 10 µM | > 10 µM | > 10 µM | > 10 µM | > 10 µM | 0 | 0 | 0 | 0 | 0.2 | 95.9% | 96.2% | 94.7% | 97.8% | 95.6% | 99.9% | 97.9% | 100% | 100% | 99.1% | 94.5% | 98.8% | 105% | 107% | 90.9% | 101% | 98.4% | 95.2% | 104% | 99.9% | 93.4% | 83.8% | 105% | 87.2% | 85.1%
N#Cc1ccc(-c2ccc(S(=O)(=O)Nc3cccc(N)n3)cc2)cc1 | > 10 µM | > 10 µM | > 10 µM | > 10 µM | > 10 µM | 0 | 0 | 1 | 0 | 0 | 97.4% | 96.3% | 95.9% | 93.9% | 90.8% | 101% | 97.2% | 101% | 99.4% | 95.1% | 100% | 98.3% | 104% | 97.6% | 79% | 99.6% | 104% | 98.9% | 107% | 104% | 87.9% | 95.5% | 95.4% | 96.7% | 91%
Nc1nc2ccc(Cl)cc2c2nc(-c3ccco3)nn12 | > 10 µM | > 10 µM | 0.297 µM | > 10 µM | > 10 µM | 0.2 | 0 | 13.8 | 0.4 | 2.2 | 96.1% | 97.6% | 94.2% | 100% | 85.9% | 102% | 100% | 103% | 97.7% | 98.3% | 91.5% | 104% | 87.7% | 33.5% | 23.2% | 109% | 92.8% | 96.9% | 98.5% | 84.9% | 100% | 91.6% | 104% | 88.1% | 76.7%
O=C(O)c1cc2cccc([N+](=O)[O-])c2[nH]1 | > 10 µM | > 10 µM | > 10 µM | > 10 µM | > 10 µM | 0 | 0 | 0 | 0 | 0 | 97.2% | 99.2% | 93.6% | 97.6% | 110% | 100% | 97.9% | 101% | 102% | 104% | 102% | 99.2% | 98.8% | 112% | 112% | 90.8% | 101% | 100% | 99.5% | 111% | 98% | 91.4% | 88.4% | 101% | 116%
O=C(OCCN1CCCCC1)c1c[nH]c2ccccc12 | > 10 µM | > 10 µM | > 10 µM | > 10 µM | > 10 µM | 0 | 0 | 0 | 0 | 0 | 98.7% | 95.6% | 95.4% | 95.8% | 104% | 96.8% | 104% | 97.6% | 102% | 94.3% | 102% | 93.8% | 98.2% | 106% | 94.4% | 106% | 104% | 97.7% | 103% | 91.3% | 99.3% | 97.2% | 95.3% | 96.3% | 99.4%
